Experiments:
Assay in all cases: radiometric filter-binding kinase assay
EPHB4 (human) = EPHB4 (human) (UniProt P54760)
IGF1R (human) = IGF1R (human) (UniProt P08069)
NEK2 (human) = NEK2 (human) (UniProt P51955)
NTRK1 (human) = NTRK1 (human) (UniProt P04629)
RPS6KA1 KD1 KD2 (human) = RPS6KA1 KD1 KD2 (human) (UniProt Q15418)
MAPKAPK2 (human) = MAPKAPK2 (human) (UniProt P49137)
AURKB (human) = AURKB (human) (UniProt Q96GD4)
MAP3K1 (human) = MAP3K1 (human) (UniProt Q13233)
IKBKB (human) = IKBKB (human) (UniProt O14920)
MAPK15 (human) = MAPK15 (human) (UniProt Q8TD08)
MAP3K5 (human) = MAP3K5 (human) (UniProt Q99683)
MKNK2 (human) = MKNK2 (human) (UniProt Q9HBH9)
CHEK2 (human) = CHEK2 (human) (UniProt O96017)
MINK1 (human) = MINK1 (human) (UniProt Q8N4C8)
GCK (human) = GCK (human) (UniProt Q12851)
MAPK3 (human) = MAPK3 (human) (UniProt P27361)
MKNK1 (human) = MKNK1 (human) (UniProt Q9BUB5)
[1] = tested on: AKT2 (human), P31751 [S474D]
PRKAA1 or PRKAA2 (rat) = conditions: accession and sequence are those of the human protein
SRC (human) = SRC (human) (UniProt P12931)
MAP2K1 (human) = MAP2K1 (human) (UniProt Q02750)
PHKG1 (human) = PHKG1 (human) (UniProt Q16816)
PRKCA (human) = PRKCA (human) (UniProt P17252)
MAPK10 (human) = MAPK10 (human) (UniProt P53779)
CHEK1 (human) = CHEK1 (human) (UniProt O14757)
PIM2 (human) = PIM2 (human) (UniProt Q9P1W9)
MARK2 (human) = MARK2 (human) (UniProt Q7KZI7)
PKN2 (human) = PKN2 (human) (UniProt Q16513)
YES1 (human) = YES1 (human) (UniProt P07947)
MAPK1 (human) = MAPK1 (human) (UniProt P28482)
PRKACA (human) = PRKACA (human) (UniProt P17612)
STK3 (human) = STK3 (human) (UniProt Q13188)
CAMKK2 (human) = CAMKK2 (human) (UniProt Q96RR4)
MAPK9 (human) = MAPK9 (human) (UniProt P45984)
[2] = target: STK11 CAB39 STRADA (human) (UniProt Q9Y376+Q7RTN6+Q15831)

Chain of PKN2 (human) (Q16513 whole entry, looked up): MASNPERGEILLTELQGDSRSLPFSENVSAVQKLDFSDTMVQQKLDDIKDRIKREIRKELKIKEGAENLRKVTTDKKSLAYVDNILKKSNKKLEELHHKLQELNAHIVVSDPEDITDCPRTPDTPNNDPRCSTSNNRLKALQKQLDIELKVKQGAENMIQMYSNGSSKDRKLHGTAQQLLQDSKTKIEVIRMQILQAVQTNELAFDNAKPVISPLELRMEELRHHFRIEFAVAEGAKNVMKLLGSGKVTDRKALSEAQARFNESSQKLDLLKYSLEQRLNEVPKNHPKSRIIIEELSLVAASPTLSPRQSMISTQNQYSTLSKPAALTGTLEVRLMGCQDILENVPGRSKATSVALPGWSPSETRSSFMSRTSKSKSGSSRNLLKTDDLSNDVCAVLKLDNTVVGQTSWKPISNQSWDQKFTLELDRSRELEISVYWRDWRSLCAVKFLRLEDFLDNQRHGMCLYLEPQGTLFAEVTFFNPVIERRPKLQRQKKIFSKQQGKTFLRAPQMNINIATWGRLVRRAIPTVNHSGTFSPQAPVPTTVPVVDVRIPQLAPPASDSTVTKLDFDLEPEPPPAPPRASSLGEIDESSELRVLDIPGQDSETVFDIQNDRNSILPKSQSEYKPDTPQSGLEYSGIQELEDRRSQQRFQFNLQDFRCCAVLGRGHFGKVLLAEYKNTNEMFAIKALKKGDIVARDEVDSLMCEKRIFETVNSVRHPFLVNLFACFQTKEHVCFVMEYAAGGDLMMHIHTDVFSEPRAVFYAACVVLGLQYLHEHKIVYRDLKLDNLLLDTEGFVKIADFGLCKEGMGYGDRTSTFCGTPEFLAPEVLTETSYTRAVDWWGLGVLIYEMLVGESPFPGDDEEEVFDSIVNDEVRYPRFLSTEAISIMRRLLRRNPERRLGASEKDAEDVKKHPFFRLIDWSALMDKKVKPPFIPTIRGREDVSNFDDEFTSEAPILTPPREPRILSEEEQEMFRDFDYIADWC
Chain of YES1 (human) (P07947 whole entry, looked up): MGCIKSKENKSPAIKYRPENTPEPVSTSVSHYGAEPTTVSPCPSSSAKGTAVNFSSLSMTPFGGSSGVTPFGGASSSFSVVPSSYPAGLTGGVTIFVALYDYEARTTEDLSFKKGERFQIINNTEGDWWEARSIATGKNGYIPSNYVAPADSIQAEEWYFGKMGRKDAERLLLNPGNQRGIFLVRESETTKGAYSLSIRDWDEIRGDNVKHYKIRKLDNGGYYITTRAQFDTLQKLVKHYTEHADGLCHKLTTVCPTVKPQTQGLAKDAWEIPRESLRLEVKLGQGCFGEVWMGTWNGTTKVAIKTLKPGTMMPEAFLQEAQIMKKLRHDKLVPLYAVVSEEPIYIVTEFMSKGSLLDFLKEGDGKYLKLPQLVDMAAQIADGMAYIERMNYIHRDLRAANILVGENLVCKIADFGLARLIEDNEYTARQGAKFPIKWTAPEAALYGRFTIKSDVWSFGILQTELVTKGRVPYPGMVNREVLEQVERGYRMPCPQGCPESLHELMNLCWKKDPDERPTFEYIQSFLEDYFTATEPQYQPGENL
Chain of IKBKB (human) (O14920 whole entry, looked up): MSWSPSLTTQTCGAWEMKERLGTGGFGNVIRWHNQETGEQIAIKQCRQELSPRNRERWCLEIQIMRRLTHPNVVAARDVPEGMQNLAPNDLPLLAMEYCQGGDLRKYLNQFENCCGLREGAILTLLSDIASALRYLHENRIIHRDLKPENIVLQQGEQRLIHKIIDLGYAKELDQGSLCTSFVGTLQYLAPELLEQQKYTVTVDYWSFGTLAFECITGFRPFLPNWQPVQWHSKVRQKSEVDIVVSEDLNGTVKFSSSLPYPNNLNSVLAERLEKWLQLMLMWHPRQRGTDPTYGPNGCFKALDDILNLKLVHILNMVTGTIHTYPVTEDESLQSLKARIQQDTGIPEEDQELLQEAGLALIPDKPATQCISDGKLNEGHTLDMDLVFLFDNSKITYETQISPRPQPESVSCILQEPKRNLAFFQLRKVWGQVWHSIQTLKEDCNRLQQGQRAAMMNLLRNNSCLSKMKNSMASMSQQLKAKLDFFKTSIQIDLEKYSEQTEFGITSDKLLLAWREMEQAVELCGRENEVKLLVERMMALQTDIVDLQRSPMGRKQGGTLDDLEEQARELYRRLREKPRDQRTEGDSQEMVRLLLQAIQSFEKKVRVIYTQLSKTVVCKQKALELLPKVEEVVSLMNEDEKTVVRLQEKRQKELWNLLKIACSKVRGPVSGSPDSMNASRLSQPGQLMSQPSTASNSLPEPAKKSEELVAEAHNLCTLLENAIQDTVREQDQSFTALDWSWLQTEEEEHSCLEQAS
Chain of IGF1R (human) (P08069 whole entry, looked up): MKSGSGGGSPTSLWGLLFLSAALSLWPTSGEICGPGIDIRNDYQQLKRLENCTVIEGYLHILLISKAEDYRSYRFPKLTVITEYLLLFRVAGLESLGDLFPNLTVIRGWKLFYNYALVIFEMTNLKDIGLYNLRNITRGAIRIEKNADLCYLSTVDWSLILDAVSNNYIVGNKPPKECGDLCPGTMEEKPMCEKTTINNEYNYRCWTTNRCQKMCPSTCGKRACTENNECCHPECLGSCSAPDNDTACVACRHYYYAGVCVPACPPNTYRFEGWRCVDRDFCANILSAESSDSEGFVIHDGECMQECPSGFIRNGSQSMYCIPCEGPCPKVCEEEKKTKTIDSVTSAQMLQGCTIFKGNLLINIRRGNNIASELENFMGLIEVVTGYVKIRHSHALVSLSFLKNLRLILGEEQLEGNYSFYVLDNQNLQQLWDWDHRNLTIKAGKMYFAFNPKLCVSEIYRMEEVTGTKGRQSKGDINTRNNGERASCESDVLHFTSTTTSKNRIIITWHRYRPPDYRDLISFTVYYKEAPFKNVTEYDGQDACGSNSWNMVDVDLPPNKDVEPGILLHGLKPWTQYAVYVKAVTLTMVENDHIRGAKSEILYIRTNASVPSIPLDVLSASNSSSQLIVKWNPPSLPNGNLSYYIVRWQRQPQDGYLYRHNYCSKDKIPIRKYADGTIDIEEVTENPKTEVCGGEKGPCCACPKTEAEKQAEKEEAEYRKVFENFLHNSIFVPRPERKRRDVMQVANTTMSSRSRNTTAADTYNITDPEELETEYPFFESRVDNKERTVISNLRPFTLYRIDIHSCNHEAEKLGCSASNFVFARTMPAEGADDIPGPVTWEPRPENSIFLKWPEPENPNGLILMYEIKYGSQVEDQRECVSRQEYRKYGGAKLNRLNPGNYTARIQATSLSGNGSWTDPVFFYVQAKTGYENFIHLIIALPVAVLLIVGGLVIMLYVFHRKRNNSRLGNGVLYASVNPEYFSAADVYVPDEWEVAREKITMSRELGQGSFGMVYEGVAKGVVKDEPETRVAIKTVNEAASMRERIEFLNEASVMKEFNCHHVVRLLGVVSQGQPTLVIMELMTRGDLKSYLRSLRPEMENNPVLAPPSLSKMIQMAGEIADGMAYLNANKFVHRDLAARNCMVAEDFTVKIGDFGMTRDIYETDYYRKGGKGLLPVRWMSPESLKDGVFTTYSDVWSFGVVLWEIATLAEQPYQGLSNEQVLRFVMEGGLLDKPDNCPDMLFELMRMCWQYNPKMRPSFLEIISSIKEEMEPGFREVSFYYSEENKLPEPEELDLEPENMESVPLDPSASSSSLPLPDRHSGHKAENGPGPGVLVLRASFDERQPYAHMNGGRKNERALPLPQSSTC
Chain of NTRK1 (human) (P04629 whole entry, looked up): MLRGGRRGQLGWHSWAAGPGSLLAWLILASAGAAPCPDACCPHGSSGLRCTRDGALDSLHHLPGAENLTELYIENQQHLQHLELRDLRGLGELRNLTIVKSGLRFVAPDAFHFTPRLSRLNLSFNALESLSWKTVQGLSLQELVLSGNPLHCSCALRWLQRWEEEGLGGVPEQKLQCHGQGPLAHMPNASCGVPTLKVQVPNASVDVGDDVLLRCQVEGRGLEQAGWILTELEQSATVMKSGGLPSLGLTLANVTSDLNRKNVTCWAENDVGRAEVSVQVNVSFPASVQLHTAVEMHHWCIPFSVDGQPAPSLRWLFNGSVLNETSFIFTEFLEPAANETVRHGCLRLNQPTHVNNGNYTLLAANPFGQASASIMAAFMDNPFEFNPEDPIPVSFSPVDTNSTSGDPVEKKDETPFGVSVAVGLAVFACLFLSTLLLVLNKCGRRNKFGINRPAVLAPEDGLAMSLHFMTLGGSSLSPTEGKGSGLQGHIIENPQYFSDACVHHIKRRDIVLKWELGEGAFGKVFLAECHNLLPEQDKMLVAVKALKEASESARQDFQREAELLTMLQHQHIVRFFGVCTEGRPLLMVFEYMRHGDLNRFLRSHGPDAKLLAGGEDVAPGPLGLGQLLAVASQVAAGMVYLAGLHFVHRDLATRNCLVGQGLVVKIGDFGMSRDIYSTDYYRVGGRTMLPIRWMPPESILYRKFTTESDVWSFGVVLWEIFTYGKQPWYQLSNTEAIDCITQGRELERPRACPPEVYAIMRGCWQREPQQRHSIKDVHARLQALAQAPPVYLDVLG
Chain of MAPK9 (human) (P45984 whole entry, looked up): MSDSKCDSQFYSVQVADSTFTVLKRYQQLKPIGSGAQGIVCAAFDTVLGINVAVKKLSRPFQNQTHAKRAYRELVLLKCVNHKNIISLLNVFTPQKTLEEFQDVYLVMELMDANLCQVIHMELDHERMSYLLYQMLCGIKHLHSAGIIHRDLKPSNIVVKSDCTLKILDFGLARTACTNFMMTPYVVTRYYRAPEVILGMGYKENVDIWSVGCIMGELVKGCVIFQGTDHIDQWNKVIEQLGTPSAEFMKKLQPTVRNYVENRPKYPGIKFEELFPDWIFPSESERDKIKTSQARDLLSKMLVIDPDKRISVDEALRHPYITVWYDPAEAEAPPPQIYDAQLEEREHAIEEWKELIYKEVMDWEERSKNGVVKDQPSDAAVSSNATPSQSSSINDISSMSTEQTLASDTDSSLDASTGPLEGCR

CCn1c(-c2nonc2N)nc2cncc(CNC3CCNCC3)c21
residual activity (EPHB4 (human); compound 0.1 µM): 105% | residual activity (EPHB4 (human); compound 1.0 µM): 105% | residual activity (EPHB4 (human); compound 10.0 µM): 94% | residual activity (IGF1R (human); compound 0.1 µM): 96% | residual activity (IGF1R (human); compound 1.0 µM): 107% | residual activity (IGF1R (human); compound 10.0 µM): 105% | residual activity (NEK2 (human); compound 0.1 µM): 98% | residual activity (NEK2 (human); compound 1.0 µM): 93% | residual activity (NEK2 (human); compound 10.0 µM): 106% | residual activity (NTRK1 (human); compound 0.1 µM): 104% | residual activity (NTRK1 (human); compound 1.0 µM): 99% | residual activity (NTRK1 (human); compound 10.0 µM): 97% | residual activity (RPS6KA1 KD1 KD2 (human); compound 0.1 µM): 33% | residual activity (RPS6KA1 KD1 KD2 (human); compound 1.0 µM): 15% | residual activity (RPS6KA1 KD1 KD2 (human); compound 10.0 µM): 9% | residual activity (MAPKAPK2 (human); compound 0.1 µM): 112% | residual activity (MAPKAPK2 (human); compound 1.0 µM): 104% | residual activity (MAPKAPK2 (human); compound 10.0 µM): 102% | residual activity (AURKB (human); compound 0.1 µM): 85% | residual activity (AURKB (human); compound 1.0 µM): 76% | residual activity (AURKB (human); compound 10.0 µM): 71% | residual activity (MAP3K1 (human); compound 0.1 µM): 94% | residual activity (MAP3K1 (human); compound 1.0 µM): 93% | residual activity (MAP3K1 (human); compound 10.0 µM): 112% | residual activity (IKBKB (human); compound 0.1 µM): 98% | residual activity (IKBKB (human); compound 1.0 µM): 97% | residual activity (IKBKB (human); compound 10.0 µM): 100% | residual activity (MAPK15 (human); compound 0.1 µM): 95% | residual activity (MAPK15 (human); compound 1.0 µM): 62% | residual activity (MAPK15 (human); compound 10.0 µM): 27% | residual activity (MAP3K5 (human); compound 0.1 µM): 100% | residual activity (MAP3K5 (human); compound 1.0 µM): 97% | residual activity (MAP3K5 (human); compound 10.0 µM): 97% | residual activity (MKNK2 (human); compound 0.1 µM): 110% | residual activity (MKNK2 (human); compound 1.0 µM): 116% | residual activity (MKNK2 (human); compound 10.0 µM): 77% | residual activity (CHEK2 (human); compound 0.1 µM): 94% | residual activity (CHEK2 (human); compound 1.0 µM): 89% | residual activity (CHEK2 (human); compound 10.0 µM): 69% | residual activity (MINK1 (human); compound 0.1 µM): 107% | residual activity (MINK1 (human); compound 1.0 µM): 96% | residual activity (MINK1 (human); compound 10.0 µM): 72% | residual activity (GCK (human); compound 0.1 µM): 91% | residual activity (GCK (human); compound 1.0 µM): 94% | residual activity (GCK (human); compound 10.0 µM): 71% | residual activity (MAPK3 (human); compound 0.1 µM): 95% | residual activity (MAPK3 (human); compound 1.0 µM): 98% | residual activity (MAPK3 (human); compound 10.0 µM): 97% | residual activity (MKNK1 (human); compound 0.1 µM): 91% | residual activity (MKNK1 (human); compound 1.0 µM): 100% | residual activity (MKNK1 (human); compound 10.0 µM): 90% | residual activity ([1]; compound 0.1 µM): 101% | residual activity ([1]; compound 1.0 µM): 59% | residual activity ([1]; compound 10.0 µM): 38% | residual activity (PRKAA1 or PRKAA2 (rat); compound 0.1 µM): 95% | residual activity (PRKAA1 or PRKAA2 (rat); compound 1.0 µM): 82% | residual activity (PRKAA1 or PRKAA2 (rat); compound 10.0 µM): 29% | residual activity (SRC (human); compound 0.1 µM): 110% | residual activity (SRC (human); compound 1.0 µM): 120% | residual activity (SRC (human); compound 10.0 µM): 102% | residual activity (MAP2K1 (human); compound 0.1 µM): 85% | residual activity (MAP2K1 (human); compound 1.0 µM): 103% | residual activity (MAP2K1 (human); compound 10.0 µM): 78% | residual activity (PHKG1 (human); compound 0.1 µM): 101% | residual activity (PHKG1 (human); compound 1.0 µM): 101% | residual activity (PHKG1 (human); compound 10.0 µM): 75% | residual activity (PRKCA (human); compound 0.1 µM): 84% | residual activity (PRKCA (human); compound 1.0 µM): 70% | residual activity (PRKCA (human); compound 10.0 µM): 30% | residual activity (MAPK10 (human); compound 0.1 µM): 97% | residual activity (MAPK10 (human); compound 10.0 µM): 95% | residual activity (CHEK1 (human); compound 0.1 µM): 89% | residual activity (CHEK1 (human); compound 1.0 µM): 88% | residual activity (CHEK1 (human); compound 10.0 µM): 53% | residual activity (PIM2 (human); compound 1.0 µM): 110% | residual activity (PIM2 (human); compound 10.0 µM): 69% | residual activity (MARK2 (human); compound 0.1 µM): 99% | residual activity (MARK2 (human); compound 1.0 µM): 92% | residual activity (MARK2 (human); compound 10.0 µM): 63% | residual activity (PKN2 (human); compound 0.1 µM): 31% | residual activity (PKN2 (human); compound 1.0 µM): 12% | residual activity (PKN2 (human); compound 10.0 µM): 7% | residual activity (YES1 (human); compound 0.1 µM): 108% | residual activity (YES1 (human); compound 1.0 µM): 98% | residual activity (YES1 (human); compound 10.0 µM): 86% | residual activity (MAPK1 (human); compound 0.1 µM): 113% | residual activity (MAPK1 (human); compound 1.0 µM): 117% | residual activity (MAPK1 (human); compound 10.0 µM): 115% | residual activity (PRKACA (human); compound 0.1 µM): 79% | residual activity (PRKACA (human); compound 1.0 µM): 33% | residual activity (PRKACA (human); compound 10.0 µM): 8% | residual activity (STK3 (human); compound 0.1 µM): 106% | residual activity (STK3 (human); compound 1.0 µM): 97% | residual activity (STK3 (human); compound 10.0 µM): 71% | residual activity (CAMKK2 (human); compound 1.0 µM): 128% | residual activity (CAMKK2 (human); compound 10.0 µM): 105% | residual activity (MAPK9 (human); compound 0.1 µM): 109% | residual activity (MAPK9 (human); compound 1.0 µM): 103% | residual activity (MAPK9 (human); compound 10.0 µM): 95% | residual activity ([2]; compound 0.1 µM): 108% | residual activity ([2]; compound 10.0 µM): 57%

— the kinase profiling compilation of Christmann-Franck et al. (2016)
